Measured values: patent US11078202B2, “β-lactamase inhibitor and use thereof” (priority 2018, dated 2021)
Where a name gives a salt, the structure may show the parent alone.

Key:
Type in all cases: cell-based
[1] = test system: Escherichia coli XNWB 0010; assay: MIC assay of test compounds combined with ampicillin (8 μg/mL); conditions: ampicillin 8 μg/mL fixed
Experimental: (§1) The bacterial strains used for the minimum inhibitory concentration (MIC) test were frozen in a −80° C. ULT freezer and thawed 2 days before use. A small amount of frozen bacterial strains were scraped using a sterile inoculating loop, streaked onto a TSA solid culture dish for inoculation, and then cultured for 20-24 h at 35±2° C. in a normal atmospheric environment.
(§2) 5-10 colonies with similar morphology were picked from the culture dish using a sterile inoculating loop and then re-streaked onto a suitable solid culture dish. Then the dish was placed into a normal incubator for culture for 20-24 h at 35±2° C.
(§3) 5-10 single bacterial colonies were picked from the solid culture dish, resuspended in 500 μL of 0.9% NaCl, and adjusted to an OD600 of 0.1-0.15 with a spectrophotometer.
(§4) The bacteria were then diluted 300-fold with 1.1×CAMHB.
(§5) Test compounds of columns A-H: having a highest final test concentration of 64 μg/mL or 32 μg/mL, 2-fold diluted.
(§6) Dilution of test compounds: All test compounds were dissolved and diluted in dimethylsulfoxide (DMSO). 170 μL of 3.2 mg/mL (50*64 μg/mL) compound was transferred to wells (A1-H1) of column 1 of a dilution master plate and then 85 μL of DMSO was transferred to wells of other columns. Each compound was diluted 2-fold in sequence (i.e., 85 μL of compound was pipetted from column 1 into column 2 and mixed uniformly, 85 μL of compound was pipetted from column 2 into column 3 and mixed uniformly, then 85 μL of compound was pipetted from column 3 into column 4 and mixed uniformly, and so on until the dilution was done in column 11).
(§7) Preparation of an additive of ampicillin: Ampicillin was dissolved in ddH2O. 30 μL of 100 μg/mL (12.5×8 μg/mL) ampicillin was transferred to columns 1-11 of an additive plate, followed by the addition of 30 μL of ddH2O to column 12.
(§8) 2 μL of each compound in the dilution master plate of the test compounds was transferred to the corresponding well of the assay plates. In the mean time, 2 μL of 100% DMSO was transferred to the compound-free wells (GC and SC wells). (1) 8 μL of imipenem in the additive plate of imipenem was transferred to the corresponding wells of the assay plates; (2) 8 μL of ceftazidime in the additive plate of ceftazidime was transferred to the corresponding wells of the assay plates; (3) 8 μL of ampicillin in the additive plate of ampicillin was transferred to the corresponding wells of the assay plates.
(§9) 90 μL of corresponding bacterial inocula were added to wells (except for SC wells) of the assay plates.
(§10) After addition, the 6 assay plates were covered by sterile covers. The mixtures in the assay plates were centrifuged by a centrifuge at 1000 rpm for 30 s, and mixed uniformly by oscillating with a microplate oscillator at 800 rpm for 1 min, and then cultured in a common incubator for 16-20 h at 35±2° C.
(§11) The minimum inhibitory concentration of each compound was recorded by reference to guidelines from the Clinical and Laboratory Standards Institute.
(§12) The minimum inhibitory concentrations of the compounds of the present invention and antibiotics (imipenem, ceftazidime, and ampicillin) against 11 strains of bacteria were tested in this study by reference to the medium microdilution method as indicated by the Clinical and Laboratory Standards Institute. The effect of the test compounds in combination with imipenem, ceftazidime, and ampicillin was also tested. Compounds were diluted two-fold in 96-well plates from the highest detection concentration of 64 μg/mL. The test compounds were tested in combination with a fixed concentration of imipenem (4 μg/mL), ceftazidime (8 μg/mL), and ampicillin (8 μg/mL). The bacterial inocula in the assay plates were resuscitated from TSA and diluted in CAMHB, while growth controls (GC wells) and sterile controls (SC wells) were set up in the assay plates. […]

[2] = test system: Escherichia coli XNWB 0009; assay: as above; conditions: ampicillin 8 μg/mL fixed
Experimental: as §1, §2, §3, §4, §5, §6, §7, §8, §9, §10, §11, §12

[3] = test system: Enterobacter aerogenes XNWB 0011; assay: as above; conditions: ampicillin 8 μg/mL fixed
Experimental: as §1, §2, §3, §4, §5, §6, §7, §8, §9, §10, §11, §12

[4] = test system: Klebsiella pneumoniae XNWB 0005; assay: MIC assay of test compounds combined with ceftazidime (8 μg/mL); conditions: ceftazidime 8 μg/mL fixed
Procedure, shortened: (§13)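 Antibiotic potentiation test: compound serially diluted, partner β-lactam at constant concentration, CAMHB medium, saline-standardised inoculum (OD600 0.1-0.15) diluted 300-fold. Incubated 16-20 h at 35±2 °C.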

[5] = test system: Klebsiella pneumoniae XNWB 0003; assay: as above; conditions: ceftazidime 8 μg/mL fixed
Procedure, shortened: as §13

[6] = test system: Klebsiella pneumoniae XNWB 0002; assay: as above; conditions: ceftazidime 8 μg/mL fixed
Procedure, shortened: as §13

[7] = test system: Klebsiella pneumoniae XNWB 0004; assay: as above; conditions: ceftazidime 8 μg/mL fixed
Procedure, shortened: as §13

[8] = test system: Klebsiella pneumoniae XNWB 0001; assay: as above; conditions: ceftazidime 8 μg/mL fixed
Procedure, shortened: as §13

[9] = test system: Klebsiella pneumoniae XNWB 0006; assay: as above; conditions: ceftazidime 8 μg/mL fixed
Procedure, shortened: as §13

[10] = test system: Acinetobacter baumannii XNWB 0007; assay: as above; conditions: ceftazidime 8 μg/mL fixed
Procedure, shortened: as §13

[11] = test system: Pseudomonas aeruginosa XNWB 0008; assay: as above; conditions: ceftazidime 8 μg/mL fixed
Procedure, shortened: as §13

[12] = test system: Klebsiella pneumoniae XNWB 0005; assay: MIC assay of test compounds combined with imipenem (4 μg/mL); conditions: imipenem 4 μg/mL fixed
Procedure, shortened: as §13

[13] = test system: Klebsiella pneumoniae XNWB 0003; assay: as above; conditions: imipenem 4 μg/mL fixed
Procedure, shortened: as §13

[14] = test system: Klebsiella pneumoniae XNWB 0002; assay: as above; conditions: imipenem 4 μg/mL fixed
Procedure, shortened: as §13

[15] = test system: Klebsiella pneumoniae XNWB 0004; assay: as above; conditions: imipenem 4 μg/mL fixed
Procedure, shortened: as §13

[16] = test system: Klebsiella pneumoniae XNWB 0001; assay: as above; conditions: imipenem 4 μg/mL fixed
Procedure, shortened: as §13

[17] = test system: Klebsiella pneumoniae XNWB 0006; assay: as above; conditions: imipenem 4 μg/mL fixed
Procedure, shortened: as §13

[18] = test system: Acinetobacter baumannii XNWB 0007; assay: as above; conditions: imipenem 4 μg/mL fixed
Procedure, shortened: as §13

[19] = test system: Pseudomonas aeruginosa XNWB 0008; assay: as above; conditions: imipenem 4 μg/mL fixed
Procedure, shortened: as §13

| Compound | The minimum concentration of test compounds combined with ampicillin (8 μg/mL) for bacteriostasis [1] | The minimum concentration of test compounds combined with ampicillin (8 μg/mL) for bacteriostasis [2] | The minimum concentration of test compounds combined with ampicillin (8 μg/mL) for bacteriostasis [3] | The minimum concentration of test compounds combined with ceftazidime (8 μg/mL) for bacteriostasis [4] | The minimum concentration of test compounds combined with ceftazidime (8 μg/mL) for bacteriostasis [5] | The minimum concentration of test compounds combined with ceftazidime (8 μg/mL) for bacteriostasis [6] | The minimum concentration of test compounds combined with ceftazidime (8 μg/mL) for bacteriostasis [7] | The minimum concentration of test compounds combined with ceftazidime (8 μg/mL) for bacteriostasis [8] | The minimum concentration of test compounds combined with ceftazidime (8 μg/mL) for bacteriostasis [9] | The minimum concentration of test compounds combined with ceftazidime (8 μg/mL) for bacteriostasis [10] | The minimum concentration of test compounds combined with ceftazidime (8 μg/mL) for bacteriostasis [11] | The minimum concentration of test compounds combined with imipenem (4 μg/mL) for bacteriostasis [12] | The minimum concentration of test compounds combined with imipenem (4 μg/mL) for bacteriostasis [13] | The minimum concentration of test compounds combined with imipenem (4 μg/mL) for bacteriostasis [14] | The minimum concentration of test compounds combined with imipenem (4 μg/mL) for bacteriostasis [15] | The minimum concentration of test compounds combined with imipenem (4 μg/mL) for bacteriostasis [16] | The minimum concentration of test compounds combined with imipenem (4 μg/mL) for bacteriostasis [17] | The minimum concentration of test compounds combined with imipenem (4 μg/mL) for bacteriostasis [18] | The minimum concentration of test compounds combined with imipenem (4 μg/mL) for bacteriostasis [19] |
| --- | --- | --- | --- | --- | --- | --- | --- | --- | --- | --- | --- | --- | --- | --- | --- | --- | --- | --- | --- |
| O=C1N2C[C@H](N1OS(=O)(=O)O)C1(CC1)C[C@H]2c1nnc(CNC2CNC2)o1 [Example 14, (1R,4S)-4-(5-((azetidin-3-ylamino)methyl)-1,3,4-oxadiazol-2-yl)-6-oxo-5,7-diazaspiro [bicyclo[3.2.1]octane-2,1′-cyclopropan]-7-yl sulfate] | 4 µg/mL | A (A: <8 μg/mL) | B (B: 8-16 μg/mL) | B (B: 8-16 μg/mL) | B (B: 8-16 μg/mL) | A (A: <8 μg/mL) | B (B: 8-16 μg/mL) | A (A: <8 μg/mL) | A (A: <8 μg/mL) | C (C: 16-128 μg/mL) | C (C: 16-128 μg/mL) | A (A: <8 μg/mL) | A (A: <8 μg/mL) | A (A: <8 μg/mL) | A (A: <8 μg/mL) | A (A: <8 μg/mL) | A (A: <8 μg/mL) | C (C: 16-128 μg/mL) | B (B: 8-16 μg/mL) |
| NCCc1cc([C@@H]2CC3(CC3)[C@@H]3CN2C(=O)N3OS(=O)(=O)O)no1 [Example 41, (1R,4S)-4-(5-(2-aminoethyl)isoxazol-3-yl)-6-oxo-5,7-diazaspiro[bicyclo[3.2.1]octane-2,1′-cyclopropan]-7-yl sulfate] | A (A: <8 μg/mL) | A (A: <8 μg/mL) | B (B: 8-16 μg/mL) | A (A: <8 μg/mL) | A (A: <8 μg/mL) | A (A: <8 μg/mL) | B (B: 8-16 μg/mL) | A (A: <8 μg/mL) | A (A: <8 μg/mL) | C (C: 16-128 μg/mL) | C (C: 16-128 μg/mL) | A (A: <8 μg/mL) | A (A: <8 μg/mL) | A (A: <8 μg/mL) | A (A: <8 μg/mL) | A (A: <8 μg/mL) | A (A: <8 μg/mL) | C (C: 16-128 μg/mL) | A (A: <8 μg/mL) |
| O=C1N2C[C@H](N1OS(=O)(=O)O)C1(CC1)C[C@H]2c1cc(C2CCNCC2)on1 [Example 43, (1R,4S)-6-oxo-4-(5-(piperidin-4-yl)isoxazol-3-yl)-5,7-diazaspiro[bicyclo[3.2.1]octane-2,1′-cyclopropan]-7-yl sulfate] | A (A: <8 μg/mL) | A (A: <8 μg/mL) | B (B: 8-16 μg/mL) | A (A: <8 μg/mL) | B (B: 8-16 μg/mL) | A (A: <8 μg/mL) | B (B: 8-16 μg/mL) | A (A: <8 μg/mL) | A (A: <8 μg/mL) | C (C: 16-128 μg/mL) | B (B: 8-16 μg/mL) | A (A: <8 μg/mL) | A (A: <8 μg/mL) | A (A: <8 μg/mL) | A (A: <8 μg/mL) | A (A: <8 μg/mL) | A (A: <8 μg/mL) | C (C: 16-128 μg/mL) | A (A: <8 μg/mL) |
